Calls of active or inactive are those of the source. The calls are words filed in the database; no cut-off is given here.
Experiments:
[1] = test system: Escherichia coli; test: Bactericidal activity against Escherichia coli IFO 3806 assessed as log10 reduction in viable cell count at 2.8 uM up to 120 min by agar dilution test; assay type: functional
[2] = test system: Rhizopus stolonifer; test: Antifungal activity against Rhizopus stolonifer ATCC 6227 by spread plate method; assay type: functional
[3] = test system: Escherichia coli; test: Antibacterial activity against Escherichia coli NIHJ by spread plate method; assay type: functional
[4] = test system: Escherichia coli; test: Antibacterial activity against Escherichia coli IFO 3806 by spread plate method; assay type: functional
[5] = test system: Staphylococcus aureus; test: Bacteriostatic activity against methicillin-resistant Staphylococcus aureus by spread plate method; assay type: functional
[6] = test system: Bacillus spizizenii; test: Bacteriostatic activity against Bacillus subtilis subsp. spizizenii ATCC 6633 by spread plate method; assay type: functional
[7] = test system: Staphylococcus aureus; test: Bacteriostatic activity against methicillin-susceptible Staphylococcus aureus IFO 12732 by spread plate method; assay type: functional
[8] = test system: Debaryomyces hansenii; test: Antifungal activity against Candida famata IFO 0380 by spread plate method; assay type: functional
[9] = test system: Trichoderma harzianum; test: Antifungal activity against Trichoderma harzianum by spread plate method; assay type: functional
[10] = test system: Staphylococcus aureus; test: Bacteriostatic activity against methicillin-susceptible Staphylococcus aureus 209P by spread plate method; assay type: functional
[11] = test system: Klebsiella aerogenes; test: Antibacterial activity against Enterobacter aerogenes by spread plate method; assay type: functional
[12] = test system: Geotrichum candidum; test: Antifungal activity against Galactomyces geotrichum IFO 6454 by spread plate method; assay type: functional
[13] = test system: Penicillium citrinum; test: Antifungal activity against Penicillium citrinum ATCC 9849 by spread plate method; assay type: functional
[14] = test system: Pseudomonas aeruginosa; test: Antibacterial activity against Pseudomonas aeruginosa ATCC 27853 by spread plate method; assay type: functional
[15] = test system: Staphylococcus aureus; test: Bactericidal activity against methicillin-susceptible Staphylococcus aureus IFO 12732 assessed as log10 reduction in viable cell count at 0.28 to 280 uM up to 30 min by agar dilution test; assay type: functional, organism-based
[16] = test system: Escherichia coli; test: Bactericidal activity against Escherichia coli IFO 3806 assessed as log10 reduction in viable cell count at 28 to 280 uM after 30 to 120 min by agar dilution test; assay type: functional, organism-based
[17] = test system: Staphylococcus aureus; test: Bactericidal activity against methicillin-susceptible Staphylococcus aureus IFO 12732 assessed as log10 reduction in viable cell count at 28 uM up to 60 min by agar dilution test; assay type: functional, organism-based
[18] = test system: Escherichia coli; test: Bactericidal activity against Escherichia coli IFO 3806 assessed as log10 reduction in viable cell count at 0.28 to 280 uM up to 30 min by agar dilution test; assay type: functional, organism-based
[19] = test system: Staphylococcus aureus; test: Bactericidal activity against methicillin-susceptible Staphylococcus aureus IFO 12732 assessed as log10 reduction in viable cell count at 2.8 uM up to 120 min by agar dilution test; assay type: functional
[20] = test system: Escherichia coli; test: Bactericidal activity against Escherichia coli IFO 3806 assessed as log10 reduction in viable cell count at 2.8 to 280 uM after 30 to 120 min by agar dilution test; assay type: functional, organism-based
[21] = test system: Staphylococcus aureus; test: Bactericidal activity against methicillin-susceptible Staphylococcus aureus IFO 12732 assessed as log10 reduction in viable cell count at 280 uM up to 30 min by agar dilution test; assay type: functional, organism-based
[22] = test system: Escherichia coli; test: Bactericidal activity against Escherichia coli IFO 3806 assessed as log10 reduction in viable cell count at 280 uM after 30 to 120 min by agar dilution test; assay type: functional, organism-based
[23] = test system: Staphylococcus aureus; test: Bactericidal activity against methicillin-susceptible Staphylococcus aureus IFO 12732 assessed as log10 reduction in viable cell count at 280 uM after 30 to 120 min by agar dilution test; assay type: functional, organism-based
[24] = test system: Staphylococcus aureus; test: Bactericidal activity against methicillin-susceptible Staphylococcus aureus IFO 12732 assessed as log10 reduction in viable cell count at 28 uM up to 120 min by agar dilution test; assay type: functional
[25] = test system: Staphylococcus aureus; test: Bactericidal activity against methicillin-susceptible Staphylococcus aureus IFO 12732 assessed as log10 reduction in viable cell count at 2.8 to 280 uM after 30 to 120 min by agar dilution test; assay type: functional, organism-based
[26] = test system: Staphylococcus aureus; test: Bactericidal activity against methicillin-susceptible Staphylococcus aureus IFO 12732 assessed as log10 reduction in viable cell count at 0.28 uM by agar dilution test; assay type: functional, organism-based
[27] = test system: Staphylococcus aureus; test: Bactericidal activity against methicillin-susceptible Staphylococcus aureus IFO 12732 assessed as log10 reduction in viable cell count at 2.8 uM up to 30 min by agar dilution test; assay type: functional, organism-based

| Structure (SMILES) | MIC [2] | MIC [3] | MIC [4] | MIC [5] | MIC [6] | MIC [7] | MIC [8] | MIC [9] | MIC [10] | MIC [11] | MIC [12] | MIC [13] | MIC [14] | other results |
| --- | --- | --- | --- | --- | --- | --- | --- | --- | --- | --- | --- | --- | --- | --- |
| CCCCCCCCCC[N+](C)(C)CCCCCCCCCC |  |  |  |  |  |  |  |  |  |  |  |  |  | Activity [1]: inactive |
| CCCCCCCCCCCCCC[P+](C)(C)Cc1ccc(CC)cc1.[Cl-] [(4-ETHYLBENZYL)DIMETHYL(TETRADECYL)PHOSPHONIUM CHLORIDE] | > 200 µg/mL | 200 µg/mL | 200 µg/mL | 1.56 µg/mL | 1.56 µg/mL | 1.56 µg/mL | 6.25 µg/mL | > 200 µg/mL | 1.56 µg/mL | 200 µg/mL | 6.25 µg/mL | > 200 µg/mL | 200 µg/mL |  |
| CCCCCCCCCCCCCC[P+](C)(C)C.[Cl-] [TETRADECYLTRIMETHYLPHOSPHONIUM CHLORIDE] | 200 µg/mL | 12.5 µg/mL | 12.5 µg/mL | 1.56 µg/mL | 0.2 µg/mL | 0.2 µg/mL | 200 µg/mL | 200 µg/mL | 0.2 µg/mL | 100 µg/mL | 50 µg/mL | 200 µg/mL | 200 µg/mL | Activity [15]: Active; Activity [16]: Active; Activity [17]: Active; Activity [18]: Active |
| CCCCCCCCCCCCCCCCCC[N+](C)(C)C |  |  |  |  |  |  |  |  |  |  |  |  |  | Activity [17]: Active |
| CCCCCCCCCCCCCC[P+](C)(C)CCCCCCCCCCCCCC.[Cl-] [DITETRADECYLDIMETHYLPHOSPHONIUM CHLORIDE] | > 200 µg/mL | > 200 µg/mL | > 200 µg/mL | 200 µg/mL | 100 µg/mL | 12.5 µg/mL | > 200 µg/mL | > 200 µg/mL | 12.5 µg/mL | > 200 µg/mL | > 200 µg/mL | > 200 µg/mL | > 200 µg/mL | Activity [19]: >99.999%; Activity [20]: Active; Activity [21]: Active; Activity [17]: Active |
| CCCCCCCCCC[P+](C)(C)Cc1ccc(CC)cc1.[Cl-] [DECYL(4-ETHYLBENZYL)DIMETHYLPHOSPHONIUM CHLORIDE] | > 200 µg/mL | 12.5 µg/mL | 12.5 µg/mL | 1.56 µg/mL | 1.56 µg/mL | 0.78 µg/mL | 12.5 µg/mL | > 200 µg/mL | 0.78 µg/mL | 25 µg/mL | 6.25 µg/mL | 200 µg/mL | 200 µg/mL |  |
| CCCCCCCCCC[P+](C)(C)C.[Cl-] [DECYLTRIMETHYLPHOSPHONIUM CHLORIDE] | > 200 µg/mL | 200 µg/mL | 200 µg/mL | 50 µg/mL | 50 µg/mL | 3.13 µg/mL | > 200 µg/mL | > 200 µg/mL | 3.13 µg/mL | > 200 µg/mL | > 200 µg/mL | > 200 µg/mL | > 200 µg/mL | Activity [22]: inactive; Activity [23]: inactive |
| CCCCCCCCCCCCCCCCCC[P+](C)(C)Cc1ccc(CC)cc1.[Cl-] [(4-ETHYLBENZYL)DIMETHYL(OCTADECYL)PHOSPHONIUM CHLORIDE] | > 200 µg/mL | > 200 µg/mL | > 200 µg/mL | 25 µg/mL | 25 µg/mL | 12.5 µg/mL | > 200 µg/mL | > 200 µg/mL | 12.5 µg/mL | > 200 µg/mL | > 200 µg/mL | > 200 µg/mL | > 200 µg/mL |  |
| CCCCCCCCCCCCCCCCCC[P+](C)(C)CCCCCCCCCCCCCCCCCC.[Cl-] [DIOCTADECYLDIMETHYLPHOSPHONIUM CHLORIDE] | > 200 µg/mL | > 200 µg/mL | > 200 µg/mL | > 200 µg/mL | > 200 µg/mL | 100 µg/mL | > 200 µg/mL | > 200 µg/mL | 100 µg/mL | > 200 µg/mL | > 200 µg/mL | > 200 µg/mL | > 200 µg/mL | Activity [24]: >99.99%; Activity [20]: Active |
| CCCCCCCCCC[P+](C)(C)CCCCCCCCCC.[Cl-] [DIDECYLDIMETHYLPHOSPHONIUM CHLORIDE] | > 200 µg/mL | 3.13 µg/mL | 3.13 µg/mL | 0.78 µg/mL | 0.78 µg/mL | 0.78 µg/mL | 1.56 µg/mL | 200 µg/mL | 0.78 µg/mL | 3.13 µg/mL | 3.13 µg/mL | 100 µg/mL | 200 µg/mL | Activity [25]: Active; Activity [20]: Active |
| CCCC[P+](CCCC)(CCCC)Cc1ccc(CC)cc1.[Cl-] [TRIBUTYL(4-ETHYLBENZYL)PHOSPHONIUM CHLORIDE] | > 200 µg/mL | > 200 µg/mL | > 200 µg/mL | 50 µg/mL | 100 µg/mL | 50 µg/mL | > 200 µg/mL | > 200 µg/mL | 50 µg/mL | > 200 µg/mL | > 200 µg/mL | > 200 µg/mL | > 200 µg/mL |  |
| CCCCCCCCCCCCCCCCCC[P+](C)(C)C.[Cl-] [OCTADECYLTRIMETHYLPHOSPHONIUM CHLORIDE] | > 200 µg/mL | > 200 µg/mL | > 200 µg/mL | 1.56 µg/mL | 3.13 µg/mL | 0.78 µg/mL | 12.5 µg/mL | > 200 µg/mL | 0.78 µg/mL | > 200 µg/mL | > 200 µg/mL | > 200 µg/mL | > 200 µg/mL | Activity [1]: >99.9%; Activity [26]: inactive; Activity [27]: Active; Activity [18]: Active |
| CCCCCCCCCCCCCC[N+](C)(C)C.[Cl-] |  |  |  |  |  |  |  |  |  |  |  |  |  | Activity [24]: >99.9%; Activity [16]: Active; Activity [21]: Active |
